Experimental data from patent US20260374766A1, “METHODS FOR TREATING CANCER” (Antares Therapeutics, Inc., priority 2022, published 2026).

Experiments:
H1299 p53 Y220C = assay: Cell Proliferation Assay (CellTiter-Glo, CTG), H1299 p53 Y220C (NClH1299-inducible p53 Y220C); type: cell-based; details: Homo sapiens, NCI-H1299, 120 h, NClH1299-inducible p53 Y220C cells, 5 days, CellTiter-Glo
Outline: (§1)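 Tet-One inducible p53 Y220C or R273H constructs were stably introduced into NCI-H1299 by lentiviral transduction; NUGC3 was used as is. Cells (250-500 per well) were exposed to compound for 5 days, then CellTiter-Glo was added for 10 min at room temperature and IC50 was calculated from luminescence.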

[1] = biological target: T1, p53 Y220C mutant protein (amino acid residues 94-293) (Homo sapiens, UniProt P04637, Y220C); assay: Surface Plasmon Resonance (SPR) assay, Kd_kinetic; type: binding; details: SPR; p53 Y220C; read-out: SPR P53 Y220C KD kinetic
T1 construct: p53 Y220C mutant protein (amino acid residues 94-293)
T1 sequence (P04637 94-293, stated change not applied): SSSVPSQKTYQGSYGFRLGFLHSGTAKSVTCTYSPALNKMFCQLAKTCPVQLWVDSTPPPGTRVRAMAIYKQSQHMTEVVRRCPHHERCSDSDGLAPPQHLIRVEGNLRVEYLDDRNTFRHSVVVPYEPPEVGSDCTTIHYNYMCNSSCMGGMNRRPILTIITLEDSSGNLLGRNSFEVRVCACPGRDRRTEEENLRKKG
Outline: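 Kd values come from fitting sensorgrams to a 1:1 binding model. Sensorgrams were recorded on a Biacore 8K at 16 or 20 °C in pH 7.5 Tris buffer with 100 mM NaCl, 1 mM DTT, detergents and 1% DMSO.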

p53 Y220C = p53 Y220C (Homo sapiens, UniProt P04637, Y220C); assay: Luciferase Reporter Assay (Luc), p53 response element, NClH1299 cells with inducible p53 Y220C; type: cell-based; details: luciferase reporter, NClH1299 inducible p53 Y220C, 6 hour; for AC50: read-out: Luc P53 Y220C AC50
Outline: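 Luciferase activity is measured directly after One-Glo addition and a 5-minute room-temperature shake. Before that, cells plated at 5,000 per well receive doxycycline at 0.5 ug/mL for 24 hours, followed by compound for 6 hours.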

H1299 p53 R273H = assay: Cell Proliferation Assay (CellTiter-Glo, CTG), H1299 p53 R273H (NClH1299-inducible p53 R273H); type: cell-based; details: Homo sapiens, NCI-H1299, 120 h, NClH1299-inducible p53 R273H cells, 5 days, CellTiter-Glo
Outline: as §1

NUGC3 p53 Y220C = assay: Cell Proliferation Assay (CellTiter-Glo, CTG), NUGC3 p53 Y220C; type: cell-based; details: Homo sapiens, NUGC-3, 120 h, NUGC3 cells, 5 days, CellTiter-Glo
Outline: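 NClH1299 lines stably transduced with Tet-inducible p53 Y220C or R273H, plus NUGC3, were treated with compound for 5 days at 250-500 cells/well. IC50 derived from CellTiter-Glo luminescent signal after 10 min room-temperature incubation.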

IC50 (H1299 p53 Y220C)	Kd [1]	AC50 (p53 Y220C)	Emax (p53 Y220C)	IC50 (H1299 p53 R273H)	SMILES	IC50 (NUGC3 p53 Y220C)
< 750 nM	< 10 nM	< 750 nM	> 90%	≥ 10000 nM	CNC(=O)c1ccc(OC)c(NCC#Cc2cc3c(N[C@@H]4CN(C)C[C@@H]4F)cccn3c2SC(F)(F)F)c1 [Example 444]	< 750 nM
< 750 nM	< 10 nM	< 750 nM	> 90%	≥ 10000 nM	COc1nc(P(C)(C)=O)ncc1NCC#Cc1cc2c(N[C@@H]3CCN(C)C[C@@H]3F)cccn2c1SC(F)(F)F [Example 445, 2-(3-{[2-(dimethylphosphoryl)-4-methoxypyrimidin-5-yl]amino}prop-1-yn-1-yl)-N-[(3S,4R)-3-fluoro-1-methylpiperidin-4-yl]-3-[(trifluoromethyl)sulfanyl]indolizin-8-amine]	< 750 nM
< 750 nM	< 10 nM	< 750 nM	> 90%	≥ 10000 nM	CNC(=O)c1ccc(NCC#Cc2cc3c(N[C@@H]4CCN(C)C[C@@H]4F)nccn3c2SC(F)(F)F)c(O)c1 [Example 446, 4-{[3-(1-{[(3S,4R)-3-fluoro-1-methylpiperidin-4-yl]amino}-6-[(trifluoromethyl)sulfanyl]pyrrolo[1,2-a]pyrazin-7-yl)prop-2-yn-1-yl]amino}-3-hydroxy-N-methylbenzamide]	< 750 nM
< 750 nM	< 10 nM	< 750 nM	> 90%	≥ 10000 nM	CN1CC[C@@H](Nc2cccn3c(SC(F)(F)F)c(C#CCNc4ccc(C(=O)NCC5COC5)cc4)cc23)[C@@H](F)C1 [Example 447]	< 750 nM
< 750 nM	< 10 nM	< 750 nM	> 90%	5000 to 8000 nM	CNC(=O)c1ccc(OC)c(NCC#Cc2cc3c(N[C@@H]4CCN(C[C@H](C)O)C[C@@H]4F)nccn3c2SC(F)(F)F)c1 [Example 448]	< 750 nM
< 750 nM	< 10 nM	< 750 nM	> 90%	5000 to 8000 nM	CN1CC[C@@H](Nc2cccn3c(SC(F)(F)F)c(C#CCNc4ccc(P(C)(C)=O)c5c4OCC5)cc23)[C@@H](F)C1 [Example 449]	< 750 nM
< 750 nM	< 10 nM	< 750 nM	> 90%	≥ 10000 nM	CNC(=O)c1ccc(NCC#Cc2cc3c(N[C@@H]4CCN(C)C[C@@H]4F)cccn3c2SC(F)(F)F)c(C(F)F)c1 [Example 450, 3-(difluoromethyl)-4-{[3-(8-{[(3S,4R)-3-fluoro-1-methylpiperidin-4-yl]amino}-3-[(trifluoromethyl)sulfanyl]indolizin-2-yl)prop-2-yn-1-yl]amino}-N-methylbenzamide]	< 750 nM
< 750 nM	< 10 nM	< 750 nM	> 90%	≥ 10000 nM	COc1cc(C(=O)O)ccc1NCC#Cc1cc2c(N[C@@H]3CCN(C)C[C@@H]3F)cccn2c1SC(F)(F)F [Example 451]	< 750 nM
< 750 nM	< 10 nM	< 750 nM	> 90%	< 5000 nM	CN1CC[C@@H](Nc2cccn3c(SC(F)(F)F)c(C#CCNc4ccc(P(C)(C)=O)c5ccoc45)cc23)[C@@H](F)C1 [Example 452]	< 750 nM

The next lines start with the molecule.

SMILES	IC50 (H1299 p53 Y220C)	Kd [1]	AC50 (p53 Y220C)	Emax (p53 Y220C)	IC50 (H1299 p53 R273H)	IC50 (NUGC3 p53 Y220C)
CNC(=O)c1ccc(NCC#Cc2cc3c(N[C@@H]4CCN(C)C[C@@H]4F)cccn3c2SC(F)(F)F)c(C#N)c1 [Example 432, 3-cyano-4-{[3-(8-{[(3S,4R)-3-fluoro-1-methylpiperidin-4-yl]amino}-3-[(trifluoromethyl)sulfanyl]indolizin-2-yl)prop-2-yn-1-yl]amino}-N-methylbenzamide]	< 750 nM	< 10 nM	< 750 nM	> 90%	≥ 10000 nM	< 750 nM
CNC(=O)c1ccc(NCC#Cc2cc3c(N[C@@H]4CCN(C)C[C@@H]4F)cccn3c2SC(F)(F)F)c(OC)n1 [Example 433, 5-{[3-(8-{[(3S,4R)-3-fluoro-1-methylpiperidin-4-yl]amino}-3-[(trifluoromethyl)sulfanyl]indolizin-2-yl)prop-2-yn-1-yl]amino}-6-methoxy-N-methylpyridine-2-carboxamide]	< 750 nM	< 10 nM	< 750 nM	> 90%	5000 to 8000 nM	< 750 nM
CNC(=O)c1ccc(NCC#Cc2cn3c(N[C@@H]4CCNC[C@@H]4F)cccc3c2SC(F)(F)F)c(OC)c1 [Example 434]	< 750 nM	< 10 nM	< 750 nM	80 to 90%	5000 to 8000 nM	< 750 nM
CNC(=O)c1ccc(NCC#Cc2cc3c(N[C@@H]4CCNC[C@@H]4F)cccn3c2SC(F)(F)F)c(OC2COC2)c1 [Example 435]	< 750 nM	< 10 nM	< 750 nM	> 90%	≥ 10000 nM	< 750 nM
CNC(=O)c1ccc(NCC#Cc2cc3c(N[C@@H]4CCN(C)C[C@@H]4F)cccn3c2SC(F)(F)F)c(OCF)c1 [Example 436, 4-{[3-(8-{[(3S,4R)-3-fluoro-1-methylpiperidin-4-yl]amino}-3-[(trifluoromethyl)sulfanyl]indolizin-2-yl)prop-2-yn-1-yl]amino}-3-(fluoromethoxy)-N-methylbenzamide]	< 750 nM	< 10 nM	< 750 nM	> 90%	≥ 10000 nM	< 750 nM
CN1CC[C@@H](Nc2cccn3c(SC(F)(F)F)c(C#CCNc4ccc(P(C)(C)=O)c5ocnc45)cc23)[C@@H](F)C1 [Example 437, 7-(dimethylphosphoryl)-N-[3-(8-{[(3S,4R)-3-fluoro-1-methylpiperidin-4-yl]amino}-3-[(trifluoromethyl)sulfanyl]indolizin-2-yl)prop-2-yn-1-yl]-1,3-benzoxazol-4-amine]	< 750 nM	< 10 nM	< 750 nM	> 90%	≥ 10000 nM	< 750 nM
CS(=O)(=O)CCNC(=O)c1ccc(NCC#Cc2cc3c(N[C@@H]4CCNC[C@@H]4F)cccn3c2SC(F)(F)F)cc1 [Example 438]	< 750 nM	< 10 nM	< 750 nM	80 to 90%	≥ 10000 nM	< 750 nM
CNC(=O)c1ccc(NCC#Cc2cn3c(N[C@@H]4CCN(C)C[C@@H]4F)cccc3c2SC(F)F)c(OC)c1 [Example 440]	< 750 nM	< 10 nM	< 750 nM	> 90%	8000 to 10000 nM	< 750 nM
CN1CC[C@@H](Nc2cccn3c(SC(F)(F)F)c(C#CCNc4ccc(C(=O)NC[C@@H]5COCCO5)cc4)cc23)[C@@H](F)C1 [Example 441]	< 750 nM	< 10 nM	< 750 nM	> 90%	≥ 10000 nM	< 750 nM
[2H]C([2H])([2H])Oc1cc(C(=O)NC)ccc1NCC#Cc1cc2c(N[C@@H]3CCN(C)C[C@@H]3F)cccn2c1SC(F)(F)F [Example 442, 4-((3-(8-(((3S,4R)-3-fluoro-1-methylpiperidin-4-yl)amino)-3-((trifluoromethyl)thio)indolizin-2-yl)prop-2-yn-1-yl)amino)-3-(methoxy-d3)-N-methylbenzamide]	< 750 nM	< 10 nM	< 750 nM	80 to 90%	5000 to 8000 nM	< 750 nM
